Data reported in patent US11427567B2, “Imidazolyl pyrimidinylamine compounds as CDK2 inhibitors” (Incyte Corporation, priority 2019, dated 2022).

target: CDK2/Cyclin E1 (Homo sapiens (Human), UniProt P24941); test: CDK2/Cyclin E1 HTRF enzyme activity assay (Example A); assay type: biochemical; details: 1 mM ATP
Experimental: Assays were conducted in white 384-well polystyrene plates in a final reaction volume of 8 μL. […] HTRF signals were read after 1 hour at room temperature on a PHERAstar FS plate reader (BMG Labtech). Data was analyzed with IDBS XLFit and GraphPad Prism 5.0 software using a three or four parameter dose response curve to determine IC50 for each compound.

IC50 [nM] | Structure (SMILES)
≤ 50 | Cn1ncnc1-c1ccc(-n2cnc(-c3nc(NC4CCN(S(C)(=O)=O)CC4)ncc3C(F)(F)F)c2)c(C#N)c1 [Example 125, 5-(1-Methyl-1H-1,2,4-triazol-5-yl)-2-(4-(2-((1-(methylsulfonyl)piperidin-4-yl)amino)-5-(trifluoromethyl)pyrimidin-4-yl)-1H-imidazol-1-yl)benzonitrile]
≤ 50 | CNCc1ccc(-n2cnc(-c3nc(NC4CCN(S(C)(=O)=O)CC4)ncc3Cl)c2)c(Cl)c1 [Example 227, 5-Chloro-4-(1-(2-chloro-4-((methyl-amino)methyl)-phenyl)-1H-imidazol-4-yl)-N-(1-(methyl-sulfonyl)piperidin-4-yl)pyrimidin-2-amine]
≤ 50 | O=S(=O)(C1CC1)N1CCC(Nc2ncc(C(F)(F)F)c(-c3cn(-c4ccc(CN5CCC5)cc4Cl)cn3)n2)CC1 [Example 228, 4-(1-(4-(Azetidin-1-ylmethyl)-2-chlorophenyl)-1H-imidazol-4-yl)-N-(1-(cyclopropylsulfonyl)piperidin-4-yl)-5-(trifluoromethyl)pyrimidin-2-amine]
≤ 50 | Cc1nc(-c2nc(NC3CCN(S(C)(=O)=O)CC3)ncc2C(F)(F)F)cn1-c1ccc(N2CCC(N(C)C)CC2)cc1F [Example 101, 4-(1-(4-(4-(Dimethylamino)piperidin-1-yl)-2-fluorophenyl)-2-methyl-1H-imidazol-4-yl)-N-(1-(methylsulfonyl)piperidin-4-yl)-5-(trifluoromethyl)pyrimidin-2-amine]
≤ 50 | CCN1CCN(Cc2cc(F)c(-n3cnc(-c4nc(N[C@H]5CCN(S(C)(=O)=O)C[C@H]5F)ncc4C(F)(F)F)c3)c(F)c2)CC1 [Example 447, 4-(1-(4-((4-Ethylpiperazin-1-yl)methyl)-2,6-difluorophenyl)-1H-imidazol-4-yl)-N-((3R,45)-3-fluoro-1-(methylsulfonyl)piperidin-4-yl)-5-(trifluoromethyl)pyrimidin-2-amine]
≤ 50 | Cc1nc(-c2nc(NC3CCN(S(C)(=O)=O)CC3)ncc2C(F)(F)F)cn1-c1ccc(-c2ccnn2C)cc1F [Example 129, 4-(1-(2-Fluoro-4-(1-methyl-1H-pyrazol-5-yl)phenyl)-2-methyl-1H-imidazol-4-yl)-N-(1-(methylsulfonyl)-piperidin-4-yl)-5-(trifluoromethyl)-pyrimidin-2-amine]
≤ 50 | Cc1nc(-c2nc(N[C@H]3CCN(S(C)(=O)=O)C[C@H]3F)ncc2C(F)(F)F)cn1-c1ccc(N2CCC(N(C)C)CC2)cc1F [Example 118, 4-(1-(4-(4-(Dimethylamino)piperidin-1-yl)-2-fluorophenyl)-2-methyl-1H-imidazol-4-yl)-N-((3R,4S)-3-fluoro-1-(methylsulfonyl)piperidin-4-yl)-5-(trifluoromethyl)pyrimidin-2-amine]
≤ 50 | CC(C)(O)CCOc1ccc(-n2cnc(-c3nc(NC4CCN(S(C)(=O)=O)CC4)ncc3C(F)(F)F)c2)c(C(F)(F)F)n1 [Example 71, 2-Methyl-4-((5-(4-(2-((1-(methylsulfonyl)piperidin-4-yl)amino)-5-(trifluoromethyl)pyrimidin-4-yl)-1H-imidazol-1-yl)-6-(trifluoromethyl)pyridin-2-yl)oxy)butan-2-ol]
≤ 50 | Cc1nn(C)cc1-n1cnc(-c2nc(NC3CCN(S(C)(=O)=O)CC3)ncc2C(F)(F)F)c1 [Example 169, 4-(1-(1,3-Dimethyl-1H-pyrazol-4-yl)-1H-imidazol-4-yl)-N-(1-(methylsulfonyl)piperidin-4-yl)-5-(trifluoromethyl)pyrimidin-2-amine]
≤ 50 | CS(=O)(=O)N1CCC(Nc2ncc(C(F)(F)F)c(-c3cn(-c4ccc(CNCC(F)(F)F)cc4Cl)cn3)n2)CC1 [Example 188, 4-(1-(2-Chloro-4-(((2,2,2-trifluoroethyl)-amino)methyl)phenyl)-1H-imidazol-4-yl)-N-(1-(methylsulfonyl)-piperidin-4-yl)-5-(trifluoromethyl)-pyrimidin-2-amine]
≤ 50 | CN1CCN(c2ccc(-n3cnc(-c4nc(NC5CCN(S(C)(=O)=O)CC5)ncc4C(F)(F)F)c3)c(Cl)c2)CC1=O [Example 142, 4-(3-Chloro-4-(4-(2-((1-(methyl-sulfonyl)piperidin-4-yl)amino)-5-(trifluoromethyl)-pyrimidin-4-yl)-1H-imidazol-1-yl)phenyl)-1-methylpiperazin-2-one]
≤ 50 | CS(=O)(=O)N1CCC(Nc2ncc(C(F)(F)F)c(-c3cn(-c4ccc(CN5CCCC5=O)cc4Cl)cn3)n2)CC1 [Example 454, 1-(3-Chloro-4-(4-(2-((1-(methylsulfonyl)piperidin-4-yl)amino)-5-(trifluoromethyl)pyrimidin-4-yl)-1H-imidazol-1-yl)benzyl)pyrrolidin-2-one]
≤ 50 | CC1(F)CN(Cc2ccc(-n3cnc(-c4nc(NC5CCN(S(C)(=O)=O)CC5)ncc4C(F)(F)F)c3)c(Cl)c2)C1 [Example 196, 4-(1-(2-Chloro-4-((3-fluoro-3-methyl-azetidin-1-yl)methyl)-phenyl)-1H-imidazol-4-yl)-N-(1-(methyl-sulfonyl)piperidin-4-yl)-5-(trifluoromethyl)-pyrimidin-2-amine]
≤ 50 | Cc1nc(-c2nc(NC3CCN(S(C)(=O)=O)CC3)ncc2C(F)(F)F)cn1-c1ccc(C2CNC2)cc1F [Example 160, 4-(1-(4-(Azetidin-3-yl)-2-fluorophenyl)-2-methyl-1H-imidazol-4-yl)-N-(1-(methylsulfonyl)piperidin-4-yl)-5-(trifluoromethyl)pyrimidin-2-amine]
≤ 50 | CN(C)Cc1ccc(-n2cnc(-c3nc(NC4CCN(S(C)(=O)=O)CC4)ncc3C(F)(F)F)c2)c(Cl)c1F [Example 253, 4-(1-(2-Chloro-4-((dimethylamino)methyl)-3-fluorophenyl)-1H-imidazol-4-yl)-N-(1-(methylsulfonyl)piperidin-4-yl)-5-(trifluoromethyl)pyrimidin-2-amine]
≤ 50 | COc1nccc(-n2cnc(-c3nc(NC4CCN(S(C)(=O)=O)CC4)ncc3C(F)(F)F)c2)c1Cl [Example 295, 4-(1-(3-Chloro-2-methoxypyridin-4-yl)-1H-imidazol-4-yl)-N-(1-(methylsulfonyl)piperidin-4-yl)-5-(trifluoromethyl)pyrimidin-2-amine]
≤ 50 | O=S(=O)(C1CC1)N1CC[C@H](Nc2ncc(C(F)(F)F)c(-c3cn(CC(F)F)cn3)n2)[C@H](F)C1 [Example 329, N-((3R,4S)-1-(Cyclopropylsulfonyl)-3-fluoropiperidin-4-yl)-4-(1-(2,2-difluoroethyl)-1H-imidazol-4-yl)-5-(trifluoromethyl)pyrimidin-2-amine]
≤ 50 | CS(=O)(=O)N1CCC(Nc2ncc(C(F)(F)F)c(-c3cn(-c4cccc(CN5CC[C@H](O)C5)c4Cl)cn3)n2)CC1 [Example 365, (S)-1-(2-Chloro-3-(4-(2-((1-(methylsulfonyl)piperidin-4-yl)amino)-5-(trifluoromethyl)pyrimi-din-4-yl)-1H-imidazol-1-yl)benzyl)pyrrolidin-3-ol]
≤ 50 | CCNCc1cc(F)c(-n2cnc(-c3nc(NC4CCN(S(C)(=O)=O)CC4)ncc3C(F)(F)F)c2)c(F)c1 [Example 349, 4-(1-(4-((Ethylamino)methyl)-2,6-difluorophenyl)-1H-imidazol-4-yl)-N-(1-(methylsulfonyl)piperidin-4-yl)-5-(trifluoromethyl)pyrimidin-2-amine]
≤ 50 | CS(=O)(=O)N1CCC(Nc2ncc(C(F)(F)F)c(-c3cn(-c4ccc(CN5CC[C@@H](O)C5)cc4Cl)cn3)n2)CC1 [Example 205]
≤ 50 | CS(=O)(=O)N1CCC(Nc2ncc(C(F)(F)F)c(-c3cn(-c4ccc(CN5CC(C#N)C5)cc4Cl)cn3)n2)CC1 [Example 198, 1-(3-Chloro-4-(4-(2-((1-(methylsulfonyl)-piperidin-4-yl)amino)-5-(trifluoromethyl)-pyrimidin-4-yl)-1H-imidazol-1-yl)benzyl)-azetidine-3-carbonitrile]
≤ 50 | Cc1nc(-c2nc(NC3CCN(S(C)(=O)=O)CC3)ncc2C(F)(F)F)cn1-c1ccc(C#N)cc1F [Example 303, 3-Fluoro-4-(2-methyl-4-(2-((1-(methylsulfonyl)piperidin-4-yl)amino)-5-(trifluoromethyl)pyrimidin-4-yl)-1H-imidazol-1-yl)benzonitrile]
≤ 50 | CN1CCN(c2ccc(-n3cnc(-c4nc(NC5CCN(S(C)(=O)=O)CC5)ncc4C(F)(F)F)c3)c(C#N)c2)CC1 [Example 430, 5-(4-Methylpiperazin-1-yl)-2-(4-(2-((1-(methylsulfonyl)piperidin-4-yl)amino)-5-(trifluoromethyl)pyrimidin-4-yl)-1H-imidazol-1-yl)benzonitrile]
≤ 50 | CS(=O)(=O)N1CCC(Nc2ncc(C(F)(F)F)c(-c3cn(-c4cccc(Cl)c4Cl)cn3)n2)CC1 [Example 60, 4-(1-(2,3-Dichlorophenyl)-1H-imidazol-4-yl)-N-(1-(methylsulfonyl)piperidin-4-yl)-5-(trifluoromethyl)pyrimidin-2-amine]
≤ 50 | Cc1nc(-c2nc(NC3CCN(S(C)(=O)=O)CC3)ncc2C(F)(F)F)cn1-c1ccc(C2CN(CCO)C2)cc1F [Example 420, 2-(3-(3-Fluoro-4-(2-methyl-4-(2-((1-(methylsulfonyl)piperidin-4-yl)amino)-5-(trifluoromethyl)pyrimidin-4-yl)-1H-imidazol-1-yl)phenyl)azetidin-1-yl)ethan-1-ol]
≤ 50 | CCNCc1ccc(-n2cnc(-c3nc(N[C@H]4CCN(S(C)(=O)=O)C[C@H]4C)ncc3C(F)(F)F)c2)c(Cl)c1 [Example 218, 4-(1-(2-Chloro-4-((ethylamino)methyl)-phenyl)-1H-imidazol-4-yl)-N-((3R,4S)-3-methyl-1-(methyl-sulfonyl)piperidin-4-yl)-5-(trifluoro-methyl)-pyrimidin-2-amine]
≤ 50 | CS(=O)(=O)N1CCC(Nc2ncc(C#N)c(-c3cn(CC(F)F)cn3)n2)CC1 [Example 26, 4-(1-(2,2-Difluoroethyl)-1H-imidazol-4-yl)-2-((1-(methylsulfonyl)piperidin-4-yl)amino)pyrimidine-5-carbonitrile]
